Measurements reported in patent US3950379A, “2-Cyano-diphenyl ethers” (Rohm and Haas Company, priority 1974, dated 1976).

Tests used:
Assay type in all cases: in vivo
[1] = tested on: Dicots; assay: Herbicidal activity, preemergence, dicot weeds in flats (% control); settings: pre-emergence, 336 h, dicots (10 species, average), about 2 weeks after application, percent of plants killed; for activity at 2241.7 g/ha: 2 lb./A.; for activity at 4483.4 g/ha: 4 lb./A.
[2] = tested on: Dicots; assay: Herbicidal activity, postemergence, dicot weeds in flats (% control); settings: post-emergence, 336 h, dicots (10 species, average), about 2 weeks after application, percent of plants killed; for activity at 2241.7 g/ha: 2 lb./A.; for activity at 4483.4 g/ha: 4 lb./A.
[3] = tested on: Dicots; assay: Herbicidal activity, preemergence, dicot weeds in flats (% control); settings: pre-emergence, 336 h, dicots (4 species, average), 10 lb./A., about 2 weeks after application, percent of plants killed
Protocol: (§1) Using the procedure described below, diphenyl ethers were evaluated for control of the following weeds: At 10 pounds per acre: […]
(§2) bindweed (Convolvulus arvensis) curly dock (Rumex crispus) velvetleaf (Abutilon theophrasti) wild mustard (Brassica haber)
(§3) At 2 and 4 pounds per acre: […]
(§4) cocklebur (Xanthium pensylvanicum) […]
(§5) lambsquarters (Chenopodium album) morningglory (Ipomoea purpurea) pigweed (Amaranthus retroflexus) smartweed (Polygonum pensylvanicum) […]
(§6) wild carrot (Daucus carota)
(§7) The following test procedure is employed. Seeds of selected crops and weeds are planted in soil in flats. For preemergence tests, the flats are treated with the test compound immediately after the planting. For post-emergence tests, the seeds are allowed to germinate, and after 2 weeks the flats are treated with the test compound. The compound to be evaluated is dissolved in acetone, diluted with water, and sprayed over the flats using a carrier volume equivalent to 50 gallons per acre at the rate of application (pounds per acre, lb/A.) specified in the tables. About 2 weeks after the application of the test compound, the state of growth of the plant is observed and the phytotoxic effect of the compound is evaluated. Table II gives the average percent control achieved by the test compounds in terms of the percent of the plants which are killed by the compounds.

[4] = tested on: Dicots; assay: Herbicidal activity, postemergence, dicot weeds in flats (% control); settings: post-emergence, 336 h, dicots (4 species, average), 10 lb./A., about 2 weeks after application, percent of plants killed
Protocol: as §1, §2, §3, §4, §5, §6, §7

[5] = tested on: Monocots; assay: Herbicidal activity, postemergence, monocot weeds in flats (% control); settings: post-emergence, 336 h, about 2 weeks after application, percent of plants killed; for activity at 11208.5 g/ha: monocots (4 species, average), 10 lb./A.; for activity at 2241.7 g/ha / activity at 4483.4 g/ha: monocots (10 species, average); for activity at 2241.7 g/ha: 2 lb./A.; for activity at 4483.4 g/ha: 4 lb./A.
Protocol: as §1
(§8) barnyardgrass (Echinochloa crusgalli) crabgrass (Digitaria spp.) nutsedge (Cyperus esculentus)
as §3
(§9) downy brome (Bromus tectorum) foxtail (Setaria faberii)
(§10) Johnsongrass (Sorghum halepense) […]
(§11) quackgrass (Agropyron repens) ryegrass (Lolium perenne) […]
(§12) yellow millet (Panicum miliaceum)
as §7

[6] = tested on: Monocots; assay: Herbicidal activity, preemergence, monocot weeds in flats (% control); settings: pre-emergence, 336 h, about 2 weeks after application, percent of plants killed; for activity at 11208.5 g/ha: monocots (4 species, average), 10 lb./A.; for activity at 2241.7 g/ha / activity at 4483.4 g/ha: monocots (10 species, average); for activity at 2241.7 g/ha: 2 lb./A.; for activity at 4483.4 g/ha: 4 lb./A.
Protocol: as §1, §8, §3, §9, §10, §11, §12, §7

Row | Compound | activity at 2241.7 g/ha [1] [%] | activity at 4483.4 g/ha [1] [%] | activity at 2241.7 g/ha [2] [%] | activity at 4483.4 g/ha [2] [%] | activity at 11208.5 g/ha [3] [%] | activity at 11208.5 g/ha [4] [%] | activity at 11208.5 g/ha [5] [%] | activity at 2241.7 g/ha [5] [%] | activity at 4483.4 g/ha [5] [%] | activity at 11208.5 g/ha [6] [%] | activity at 2241.7 g/ha [6] [%] | activity at 4483.4 g/ha [6] [%]
1 | N#Cc1cc(C(F)(F)F)ccc1Oc1ccc(Cl)cc1 [Example 3, 2-cyano-α,α,α-trifluoro-p-tolyl-4-chlorophenylether] | 61 | 40 | 50 | 38 | 10 | 75 | 17 | 27 | 9 | 10 | 65 | 59
2 | N#Cc1cc(Cl)ccc1Oc1ccc([N+](=O)[O-])cc1 [Example 2] | – | 55 | – | 64 | 95 | 100 | 95 | – | 44 | 81 | – | 49
3 | N#Cc1cc(F)ccc1Oc1ccc([N+](=O)[O-])cc1 [Example 1, 2-cyano-4-fluoro-4'-nitrodiphenyl ether] | – | 51 | – | 58 | 77 | 100 | 95 | – | 44 | 77 | – | 47
4 | N#Cc1cc(C(F)(F)F)ccc1Oc1ccc(C(F)(F)F)cc1 [Example 6, 2-cyano-α, α, α-trifluoro-p-tolyl-α,α,α-trifluoro-p-tolyl ether] | 5 | – | 49 | – | 10 | 75 | 70 | 34 | – | 0 | 34 | –
5 | N#Cc1cc(C(F)(F)F)ccc1Oc1ccc(Br)cc1 [Example 4, 2-cyano-α, α, α-trifluoro-p-tolyl-4-bromophenyl ether] | 34 | 37 | 50 | 56 | 0 | 85 | 22 | 34 | 34 | 5 | 51 | 67
6 | N#Cc1cc(C(F)(F)F)ccc1Oc1ccc(Cl)c(Cl)c1 [Example 7] | 65 | 41 | 55 | 64 | 0 | 77 | 40 | 36 | 36 | 0 | 56 | 66
7 | N#Cc1ccc(Oc2ccc(C(F)(F)F)cc2C#N)cc1 [Example 5] | 47 | 50 | 59 | 41 | 77 | 65 | 25 | 48 | 11 | 70 | 42 | 44
